This is an account of results in US8575170B2, “Flurbiprofen analogs and methods of use in treating cancer” (The Regents of the Unversity of Colorado, a body corporate, priority 2010, dated 2013).

SMILES strings stand for the structures.

For assay [1], the system named is H446. Briefly: MTT cell viability, H446. As to conditions: Homo sapiens, NCI-H446, 96 h; SCLC lung cell line H446; 4 days incubation. Format: cell-based. How it is done:
(§1) The ability of the flurbiprofen analog compounds of the invention to inhibit cancer cell growth and survival (viability) in a variety of cancer lines was examined in a standard MTT assay for cell viability, as detailed in Example 2.
(§2) The studies reported in Tables 1-3 above were carried out by incubating the cells in the test compound for four days, under standard cell-culture conditions, and measuring cell survival on day 5 (see Example 2).
(§3) Cell growth and survival following treatment with N—[(S)-2-Fluoro-α-methyl-4-biphenylacetyl]-[L-(4-phenylphenyl)alanine]-N-(2,2,6,6-tetramethyl-4-piperidinyl)amide (GCBH-110=B1031; (S)-Fmba-L-Bip-Atmp) were measured by a rapid colorimetric assay based on the tetrazolium salt MTT (3-(4,5-dimethylthiazol-2-yl)-2,5-diphenyl tetrazolium bromide) (Mosmann, J. Immunol. Methods 65: 55-63, 1983, with minor modifications).
(§4) Briefly, approximately 1,000-5,000 cancer cells from 15 different cancer cells lines were plated in 100 μL of growth medium in 96-well flat-bottomed microtiter plates. Cells were incubated overnight to allow recovery. Compounds to be tested were added to the cells in triplicate in a range of concentrations and the cells were incubated at 37° C., 5% CO2, with 100% humidity. Control cells were treated in the same way without antagonists. […] Absorbance was immediately determined using a scanning multiwell plate reader.

Assay [2] concerns H1648. Briefly: MTT cell viability, H1648. It counts as cell-based. The conditions noted are these: Homo sapiens, NCI-H1648, 96 h; SCLC lung cell line H1648; 4 days incubation. How it is done:
as §1, §2, §3, §4

The subject of assay [3] is SHP77. Description: MTT cell viability, SHP77. Format: cell-based. As to conditions: SCLC lung cell line SHP77, 4 days incubation. How it is done: as §1, §2, §3, §4
The subject of assay [4] is UMSCC22B. Description: MTT cell viability, UMSCC22B. It counts as cell-based. The conditions noted are these: Homo sapiens; Head and neck cancer cell line UMSCC22B. As to the method:
as §1
(§5) A similar study was conducted on 14 […] cancer cell lines, identified in Table 2.
as §3
(§6) Briefly, approximately 1,000-5,000 cancer cells from 15 different cancer cells lines were plated in 100 μL of growth medium in 96-well flat-bottomed microtiter plates. Cells were incubated overnight to allow recovery. Compounds to be tested were added to the cells in triplicate in a range of concentrations and the cells were incubated at 37° C., 5% CO2, with 100% humidity. Control cells were treated in the same way without antagonists. […] Plates were incubated for 4 days, allowing sufficient time for cell replication and compound-induced cell death to occur. […] Absorbance was immediately determined using a scanning multiwell plate reader. […]

The test system of assay [5] is H157. Description: MTT cell viability, H157. Format: cell-based. As to conditions: Homo sapiens, NCI-H157, 96 h; Squamous lung cell line H157; 4 days incubation. How it is done:
as §1, §2, §3, §4

The subject of assay [6] is UMSCC22A. Description: MTT cell viability, UMSCC22A. It counts as cell-based. As to conditions: Head and neck cancer cell line UMSCC22A. As to the method:
as §1, §5, §3, §6

Assay [7] concerns BTIC EF12 brain tumor initiating stem cells. Description: Inhibition of BTIC EF12 brain tumor initiating stem cells. The conditions noted are these: at 10 μM, FIG. 6B. Format: cell-based. How it is done:
FIGS. 6A and 6B show the loss in cell viability in HT-29 colon cancer cells, in response to increasing concentrations of GH 502 (GCBH 118) (FIG. 6A), and the effect of various treatments, including increasing concentration of GH501 (GCBH 110) on U251 malignant glioma cells and BTIC EF12 brain tumor initiating stem cells (FIG. 6B).
The study shown in FIG. 6A examined the effect of GCBH-118 (GH502) on an HT-29 colon cancer cell, showing an IC50 value of about 1 μM. […] The graph indicates an IC50 value for the B1031 compound against the U251 brain cancer cell line of between 2 and 10 μM.

For assay [8], the system named is CaLu3. Description: MTT cell viability, CaLu3. It counts as cell-based. The conditions noted are these: Homo sapiens, Calu-3, 96 h; Adenocarcinoma lung cell line CaLu3; 4 days incubation. How it is done:
as §1, §2, §3, §4

Assay [9] deals with H3225a. Briefly: MTT cell viability, H3225a. Format: cell-based. As to conditions: 96 h; Adenocarcinoma lung cell line H3225a; 4 days incubation. As to the method: as §1, §2, §3, §4
Assay [10] concerns Panc-813. Description: MTT cell viability, Panc-813. The conditions noted are these: Pancreatic cancer cell, 96 h; Pancreatic cancer cells Panc-813; 4 days incubation. Format: cell-based.
Description: as §1
(§7) Similar results were obtained for the effect of the B1031 compound on the 14 pancreatic tumor cells lines shown in Table 3 below, where the dose dependent effect of the compound on survival of the pancreatic cancer cell lines is shown in FIG. 5.
as §2, §3
(§8) Briefly, approximately 1,000-5,000 cancer cells from 15 different cancer cells lines were plated in 100 μL of growth medium in 96-well flat-bottomed microtiter plates. Cells were incubated overnight to allow recovery. […] Absorbance was immediately determined using a scanning multiwell plate reader.

Assay [11] deals with H226. Briefly: MTT cell viability, H226. The conditions noted are these: Homo sapiens, NCI-H226, 96 h; Squamous Mesothelioma lung cell line H226; 4 days incubation. Format: cell-based. How it is done:
as §1, §2, §3, §4

Assay [12] relates to Panc-203. Description: MTT cell viability, Panc-203. It counts as cell-based. The conditions noted are these: Homo sapiens, Panc203, 96 h; Pancreatic cancer cells Panc-203; 4 days incubation.
Description: as §1, §7, §2, §3, §8

Assay [13] concerns MSK921. Description: MTT cell viability, MSK921. It counts as cell-based. The conditions noted are these: Head and neck cancer cell line MSK921. As to the method:
as §1, §5, §3, §6

Assay [14] deals with MiaPaCa pancreatic carcinoma solid tumor xenograft. Briefly: MiaPaCa pancreatic carcinoma xenograft in nude mice. The conditions noted are these: 5 mg/kg/every day intraperitoneal, beginning on the eleventh day following implantation, FIG. 12. It counts as in vivo, athymic nude mice. How it is done: Similar results were obtained when the treatment method was applied to animals having pancreatic carcinoma implants, as shown in FIG. 12.
In a second study, athymic nude mice were implanted subcutaneously with suspensions of approximately 2 million MiaPaCa pancreatic carcinoma cells, in Matrigel suspension. […] The compound was initially dissolved in dimethyl sulfoxide (DMSO) and diluted with medium. Tumor size was measured with a caliper three times per week, and tumor volume calculated as above. At autopsy, tumors were removed and weighed.

Assay [15] relates to H520. Briefly: MTT cell viability, H520. Format: cell-based. As to conditions: Homo sapiens, NCI-H520, 96 h; Squamous lung cell line H520; 4 days incubation. As to the method: as §1, §2, §3, §4
The test system of assay [16] is H322C. Briefly: MTT cell viability, H322C. Format: cell-based. As to conditions: 96 h; Adenocarcinoma lung cell line H322C; 4 days incubation. As to the method: as §1, §2, §3, §4
Assay [17] has as its system H322C1. Briefly: MTT cell viability, H322C1. The conditions noted are these: 96 h; Adenocarcinoma lung cell line H322C1; 4 days incubation. It counts as cell-based. How it is done:
as §1, §2, §3, §4

Assay [18] has as its system H417. Description: MTT cell viability, H417. Format: cell-based. As to conditions: Homo sapiens, NCI-H417, 96 h; SCLC lung cell line H417; 4 days incubation. How it is done: as §1, §2, §3, §4
Assay [19] relates to H1334. Description: MTT cell viability, H1334. Format: cell-based. The conditions noted are these: 96 h; Large Cell lung cell line H1334; 4 days incubation. As to the method:
as §1, §2, §3, §4

Broadly, the IC50 is the concentration that gives 50% inhibition. Read a high IC50 as weaker potency in that assay. Consider `C[C@H](C(=O)N[C@@H](Cc1ccc(-c2ccccc2)cc1)C(=O)NC1CC(C)(C)NC(C)(C)C1)c1ccc(-c2ccccc2)c(F)c1` [GCBH-110, N—[(S)-2-Fluoro-α-methyl-4-biphenylacetyl]-[L-(4-phenylphenyl)alanine]-N-(2,2,6,6-tetramethyl-4-piperidinyl)amide], for which the half-maximal inhibitory concentration (IC50) in [1] was 440 nM; in [2], 280 nM; in assay [3] (Homo sapiens, SHP77, 96 h), 500 nM; in [3] (listed as B1031), 530 nM; in [4] it was 300 nM; in [5] it was 210 nM. In addition, the IC50 is 430 nM in assay [6]; 1300 nM in [8]; 450 nM in assay [9]; 3100 nM in assay [10]; 203 nM in [11]; 700 nM in [12]. Further, the IC50 in [13] amounted to 770 nM; in [15], 250 nM; in [16], 450 nM; in [17] it was 130 nM; in assay [18], 1400 nM; in assay [19], 400 nM. In addition, the “compound inhibition of the BTIC EF12 cells” value in [7] was “inhibition”. Moreover, the “inhibition of MiaPaCa pancreatic carcinoma tumor growth” value in assay [14] stood at 66%.
